{"source": "paper PMC3188543", "about": "“The Anti-interferon Activity of Conserved Viral dUTPase ORF54 is Essential for an Effective MHV-68 Infection” (PLoS Pathogens, 2011)", "target": "T1, murine cellular dUTPase (Mus musculus, UniProt Q9CQ43)", "T1 construct": "gene Dut; FLAG-tagged, expressed in 293T, anti-FLAG immunopurified, 3xFLAG peptide eluted; tag kept; homotrimer", "T1 sequence (Q9CQ43 1-162)": "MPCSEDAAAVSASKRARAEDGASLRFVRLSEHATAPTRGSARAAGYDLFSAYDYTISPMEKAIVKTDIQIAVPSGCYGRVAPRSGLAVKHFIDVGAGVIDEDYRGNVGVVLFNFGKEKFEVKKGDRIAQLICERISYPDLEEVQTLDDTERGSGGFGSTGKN", "test": "dUTP hydrolysis, read out by PCR with remaining dUTP in place of dTTP (gel)", "format": "biochemical", "details": "pH 7.5, 37 C, MgCl2, DTT, BSA; 5 mM dUTP stock; 0-25 h", "data": [{"compound": "O=c1ccn([C@H]2C[C@H](O)[C@@H](COP(=O)(O)OP(=O)(O)OP(=O)(O)O)O2)c(=O)[nH]1", "note": "[dUTP]", "values": [{"measurement": "dUTP hydrolysis, read out by PCR with remaining dUTP in place of dTTP (gel)", "result": "used to determine the presence of functional dUTP after incubation"}]}]}
